# US20080311126A1, “Antisense Oligonucleotides Directed to Ribonucleotide Reducatase R2 and Uses Thereof in Combination Therapies for the Treatment of Cancer” (Genesense Technologies, Inc, priority 2004, published 2008)
# Experiments:
# [1] = test system: SK-OV-3 human ovary adenocarcinoma cells; test: SK-OV-3 ovary tumour xenograft in CD-1 nude mice; type: in vivo; details: SK-OV-3 (ovary); Mouse CD-1
# Method: SK-OV-3 human ovary adenocarcinoma cells (1×10^7 cells in 100 μl of PBS) were subcutaneously injected into the right flank of 6-7 weeks old female CD-1 nude mice. After the size of tumour reached an approximate volume of 100 mm^3, 6 days post tumour cell injection, SEQ ID NO:1 was administered by bolus infusion into the tail vein every other day at 10 mg/kg 17 times. Control animals received saline alone for the same period. Antitumour effect of SEQ ID NO: 1 was further compared to that of taxol or cisplatin alone or in combination. Taxol was administered intravenously once a week for first three weeks and intraperitoneally once a week for next two weeks at a dose of 10 mg/kg. Cisplatin was administered intravenously once a week for first three weeks and intraperitoneally once a week for next two weeks at a dose of 4 mg/kg. All treatments were stopped at day 40. Antitumour activities were estimated by the inhibition of tumour volume, which was measured with caliper. Each point represents mean tumour volume calculated from 9 animals per experimental group.
# [2] = test system: Hela S3 human cervix epitheloid carcinoma cells; test: Hela S3 hydroxyurea resistant cervix carcinoma xenograft in SCID mice; type: in vivo; details: Hela S3 (cervix), hydroxyurea resistance; SCID
# Method: Hela S3 human cervix epitheloid carcinoma cells (5×10^5 cells in 100 μl of PBS) were subcutaneously injected into the right flank of 6-7 weeks old female SCID mice. Hela S3 is a hydroxyurea resistant cell line. After the size of tumour reached an approximate volume of 100 mm^3, 3 days post tumour cell injection, SEQ ID NO:1 was administered by bolus infusion into the tail vein every other day at 10 mg/kg 6 times. Control animals received saline alone for the same period. Antitumour effect of SEQ ID NO:1 was further compared to that of Hydroxyurea or Cisplatin alone or in combination. Hydroxyurea was administered intraperitoneally every day at a dose of 250 mg/kg for 10 days. Cisplatin was administered intravenously once a week for three weeks at a dose of 4 mg/kg. Antitumour activities were estimated by the inhibition of tumour volume, which was measured with caliper. Each point represents mean tumour volume calculated from 10 animals per experimental group. […] As expected, treatment with Hydroxyurea during the same period was ineffective against Hydroxyurea-resistant tumour.
# [3] = test system: MDA-CDDP-S4 human Cisplatin-resistant breast adenocarcinoma cells; test: MDA-CDDP-S4 Cisplatin-resistant breast adenocarcinoma, fat pad injection in SCID mice; type: in vivo; details: for Tumour weight as % of saline control: MDA-CDDP-S4 (breast), Cisplatin resistance, SCID
# Method: MDA-CDDP-S4 human in vivo-selected Cisplatin-resistant breast adenocarcinoma cells (4×10^6 cells in 100 μl of PBS) were injected into the fat pad (inside of right leg) of 6-7 weeks old female SCID mice. After the size of tumour reached an approximate volume of 100 mm^3, 7 days post tumour cell injection, SEQ ID NO:1 was administered by bolus infusion into the tail vein every other day at 10 mg/kg 9 times. Control animals received saline alone for the same period. Antitumour effect of SEQ ID NO: 1 was further compared to that of Cisplatin or Taxol alone. Cisplatin was adminstered intravenously once a week for three weeks at a dose of 4 mg/kg. Taxol was administered intravenously once a week for three weeks at a dose of 10 mg/kg. Antitumour activities were estimated by the inhibition of tumour volume, which was measured with caliper. Each point represents mean tumour volume calculated from 10 animals per experimental group. […] As expected, treatment with Cisplatin during the same period was ineffective against Cisplatin-resistant tumour.
# MDA-CDDP-S4 human in vivo-selected Cisplatin-resistant breast adenocarcinoma cells (4×10^6 cells in 100 μl of PBS) were injected into the fat pad (inside of right leg) of 6-7 weeks old female CB-17 SCID mice. After the size of tumour reached an approximate volume of 100 mm^3, 9 days post tumour cell injection, SEQ ID NO:1 was administered by bolus infusion into the tail vein every other day at 10 mg/kg. Control animals received saline alone for the same period. Antitumour effect of SEQ ID NO:1 was further compared to that of Taxol alone and in combination. Taxol was administered i.p. once a week at a dose of 10 mg/kg. Antitumour activities were estimated by the inhibition of tumour volume FIG. 22A), which was measured with calipers. Each point represents mean tumour volume calculated from 10 animals per experimental group. Animals were sacrificed and tumour weights taken at the end of the study (FIG. 22C). […] This study was repeated with similar results (FIG. 22B).
# [4] = test system: MDA-MB435-To.1 human Taxol-resistant breast adenocarcinoma cells; test: MDA-MB435-To.1 Taxol-resistant breast adenocarcinoma, fat pad injection in SCID mice; type: in vivo; design: Tumour weight as % of saline control: concentration or dose not given beside the values; details: for Tumour weight as % of saline control: MDA-MB435-To.1 (breast), Taxol resistance
# Method: MDA-MB435-To.1 human Taxol-resistant breast adenocarcinoma cells (4×10^6 cells in […] of PBS) were injected into the fat pad (inside of right leg) of 6-7 weeks old female SCID mice. After the size of tumour reached an approximate volume of 100 mm^3, 20 days post tumour cell injection, SEQ ID NO:1 was administered by bolus infusion into the tail vein every other day at 10 mg/kg 15 times. Control animals received saline alone for the same period. Antitumour effect of SEQ ID NO:1 was further compared to that of Cisplatin or Taxol alone. Cisplatin was administered intravenously once a week for four weeks at a dose of 4 mg/kg. Taxol was administered intravenously once a week for four weeks at a dose of 20 mg/kg.
# Antitumour activities were estimated by the inhibition of tumour volume, which was measured with caliper. Bach point represents mean tumour volume calculated from 9-10 animals per experimental group. […] As expected, treatment with Taxol during the same period was ineffective against Taxol-resistant tumour.
# MDA-MB435-To.1 human Taxol-resistant breast adenocarcinoma cells (4×10^6 cells in 100 μl of PBS) were injected into the fat pad (inside of right leg) of 6-7 weeks old female CB-17 SCID mice. After the size of tumour reached an approximate volume of 100 mm^3, 17 days post tumour cell injection, SEQ ID NO:1 was administered by bolus infusion into the tail vein every other day at 10 mg/kg. Control animals received saline alone for the same period. Antitumour effect of SEQ ID NO:1 was compared to that of Cisplatin alone and in combination. Cisplatin was administered intravenously once a week for four weeks at a dose of 4 mg/kg. Antitumour activities were estimated by the inhibition of tumour volume, which was measured with caliper. Each point represents mean tumour volume calculated from 10 animals per experimental group. At the end of the study the animals were sacrificed and tumours weighed.
# [5] = test system: BxPC-3 human pancreatic carcinoma cells; test: BxPC-3 gemcitabine resistant pancreatic carcinoma xenograft in CD-1 nude mice; type: in vivo
# Method: BxPC-3 human pancreatic carcinoma cells (3×10^6 cells in 100 μl of PBS) were subcutaneously injected into the right flank of 6-7 weeks old female CD-1 nude mice. BxPC-3 is a gemcitabine resistant call line. After the size of tumour reached an approximate volume of 100 mm^3, 21 days post tumour cell injection, SEQ ID NO:1 was administered by bolus infusion into the tail vein every other day at 10 mg/kg 17 times. Control animals received saline alone for the same period. Antitumour effect of SEQ ID NO:1 was further compared to that of Gemcitabine. Gemcitabine was administered intravenously every three days at a dose of 100 mg/kg. Antitumour activities were estimated by the inhibition of tumour volume, which was measured with caliper. Each point represents mean tumour volume calculated from 10 animals per experimental group. […] As expected, treatment with Gemcitabine during the same period was ineffective against Gemcitabine-resistant tumour (FIGS. 19A & B).
# renal cell carcinoma = details: patients with renal cell carcinoma; cited from earlier work
# [6] = test system: MDA-MB-231 human breast cancer cells; test: MDA-MB-231 breast tumour xenograft in CD-1 nude mice; type: in vivo; details: MDA-MB-231 (breast); Mouse CD-1
# Method: MDA-MB-231 human breast cancer cells (1×10^7 cells in 100 μl of PBS) were subcutaneously injected into the right flank of 6-7 weeks old female CD-1 nude mice. After the size of tumour reached an approximate volume of 100 mm^3, 5 days post tumour cell injection, SEQ ID NO:1, or the scrambled control oligonucleotide (SEQ ID NO:3) were administered by bolus infusion into the tail vein every other day at 10 mg/kg. Control animals received saline alone for the same period. Antitumour effect of SEQ ID NO:1 was further compared to that of taxol or doxorubicin alone or in combination. Taxol was administered intravenously once a week at a dose of 10 mg/kg for three (FIG. 17A) or four weeks (FIG. 17C). Doxorubicin was administered intravenously once a week at a dose of 5 mg/kg for first three weeks (FIG. 17A) or for two weeks (FIG. 17C). All treatments were stopped at day 33 (FIG. 17A) or at day 26 (FIG. 17C), respectively. A day after the last treatment, tumours were excised from the animals and their weights were measured. […] In FIG. 17C, antitumour activities were estimated by the inhibition of tumour volume, which was measured with calipers. Each point represents mean tumour volume calculated from 10 animals per experimental group.
# [7] = test system: Human taxol-resistant promyelocytic leukaemia cells (HL-60); test: HL-60 taxol-resistant promyelocytic leukaemia xenograft in SCID mice; type: in vivo
# Method: Human taxol-resistant promyelocytic leukaemia cells (HL-60) (7×10^6 cells in 100 μl of PBS) were injected into the right flank of 6-7 weeks old female SCID mice. After the size of tumour reached an approximate volume of 100 mm^3, 10 days post tumour cell injection, SEQ ID NO:1 was administered by bolus infusion into the tail vein every other day at 10 mg/kg. Control animals received saline alone for the same period. The anti-tumour effect of SEQ ID NO:1 was further compared to that of taxol. Taxol was administered i.p. once a week at a dose of 10 mg/kg. Anti-tumour activity was estimated by the inhibition of tumour volume, which was measured with caliper. Each point represents mean tumour volume calculated from 10 animals per experimental group. In addition animals were sacrificed and tumour weights taken at the end of the study.
# [8] = study with Taxol and Cisplatin alone
compound,measurement,setting,value
"N.N.[Cl][Pt][Cl] [Cisplatin, reference compound]",tumour volume data as percentage of saline control,[1],67%
same,Tumour weight as % of saline control,[2],63%
same,antitumour effect (tumour volume),"[3]; Example 13.3, SEQ ID NO:1 10 mg/kg 9 times, Cisplatin 4 mg/kg, Taxol 10 mg/kg i.v. weekly for three weeks",ineffective
same,Tumour weight as % of saline control,[3]; [8],78%
same,Tumour weight as % of saline control,[4]; CB-17/SCID,56%
same,Tumour weight as % of saline control,[4]; SCID,69%
"Nc1ccn([C@@H]2O[C@H](CO)[C@@H](O)C2(F)F)c(=O)n1 [Gemcitabine, reference compound]",Tumour weight as % of saline control,"[5]; BxPC-3 (pancreatic), Gemcitabine resistance, CD-1",83%
same,antitumour effect (tumour volume),"[5]; SEQ ID NO:1 10 mg/kg 17 times i.v., Gemcitabine 100 mg/kg i.v. every three days",ineffective
"CC(=O)O[C@]1(C(C)=O)CC[C@H]2[C@@H]3C[C@H](C)C4=CC(=O)CC[C@]4(C)[C@H]3CC[C@@]21C [MPA, medroxyprogesterone acetate, reference compound]",1-year survival,renal cell carcinoma,31%
"CC(=O)O[C@H]1C(=O)[C@@]2(C)[C@H]([C@H](OC(=O)c3ccccc3)[C@]3(O)C[C@H](OC(=O)[C@H](O)[C@@H](NC(=O)c4ccccc4)c4ccccc4)C(C)=C1C3(C)C)[C@]1(OC(C)=O)CO[C@@H]1C[C@@H]2O [Taxol, Paclitaxel, reference compound]",Tumour weight as % of saline control,[6],58%
same,tumour volume data as percentage of saline control,[1],49%
same,Tumour weight as % of saline control,"[3]; Taxol combination study, first of two value columns",26%
same,Tumour weight as % of saline control,"[3]; Taxol combination study, second of two value columns",61%
same,Tumour weight as % of saline control,[3]; [8],32%
same,antitumour effect (tumour volume),"[4]; Example 13.5, SEQ ID NO:1 10 mg/kg 15 times, Cisplatin 4 mg/kg, Taxol 20 mg/kg i.v. weekly for four weeks",ineffective
same,Tumour weight as % of saline control,[4]; SCID,109%
same,Tumour weight as % of saline control,"[7]; HL-60 (leukemia), Taxol resistance, SCID",119%
same,"anti-tumour effect (tumour volume, tumour weight)","[7]; SEQ ID NO:1 10 mg/kg every other day, Taxol 10 mg/kg i.p. weekly",no effect on tumour growth or weight
